# Laboratory results published in article PMC5760531, “Action Potential Recording and Pro-arrhythmia Risk Analysis in Human Ventricular Trabeculae” (Frontiers in Physiology, 2018).
# Values joined by “and” are separate entries in the source; they are usually repeats but may differ in a detail not shown here. Equal values may be shown once.
# Assays:
# [1] = human free (unbound) effective therapeutic plasma concentration used to calculate multiples; cited from earlier work
# [2] = tested on: human ventricular trabeculae; experiment: Action potential recording and pro-arrhythmic score analysis in human ventricular trabeculae (hVT); settings: for Beat Escape incidence / EADs incidence / Refractoriness Escape incidence: c1-c4: 25-;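 for all read-outs here: sharp microelectrode action potential recordings at 37°C in Tyrode-perfused trabeculae, 4 cumulative concentrations each applied 31 min, values averaged over last 30 APs, vehicle 0.1% DMSO as control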
# [3] = 1Hz, 75-, 250-, 2500-FOLD free ETPC (0.0004µM)
# [4] = 2Hz, 75-, 250-, 2500-FOLD free ETPC (0.0004µM)
# [5] = average raw data, 1Hz, c2-c5: 25-, 75-, 250-, 2500-FOLD free ETPC (0.0004µM)
# [6] = average raw data, 2Hz, c2-c5: 25-, 75-, 250-, 2500-FOLD free ETPC (0.0004µM)
structure (smiles),measurement,setting,value
"Cc1ccc(O)c([C@H](CCN(C(C)C)C(C)C)c2ccccc2)c1 [TOLTERODINE, Tolterodine]",Free ETPC,[1],0.0004 µM
same,Beat Escape incidence,[2]; [3],0%
same,EADs incidence,[2]; [3],0%
same,Refractoriness Escape incidence,[2]; [3],0%
same,Beat Escape incidence,[2]; [4],0%
same,EADs incidence,[2]; [4],0%
same,Refractoriness Escape incidence,[2]; [4],0%
same,EAD induction,"[2]; any testing concentration, 1 and 2 Hz",did not induce EAD
same,AMAX,[2]; [5],110 mV and 113 mV and 107 mV and 112 mV
same,APD30,[2]; [5],186 ms and 190 ms and 192 ms and 195 ms
same,APD50,[2]; [5],248 ms and 256 ms and 279 ms and 294 ms
same,APD90,[2]; [5],320 ms and 331 ms and 378 ms and 411 ms
same,Alternans,[2]; [5],0.39 and 0.41 and 0.53 and 0.63
same,Beat Escape,[2]; [5],0
same,EADs,[2]; [5],0
same,ERP,[2]; [5],0.46 and 0.47 and 0.53 and 0.55
same,Max Dispersion,[2]; [5],2.33 and 1.97 and 2.80 and 2.90
same,Refractoriness Escape,[2]; [5],0
same,STV,[2]; [5],0.32 and 0.28 and 0.38 and 0.40
same,Triangulation,[2]; [5],134 and 141 and 186 and 215
same,AMAX,[2]; [6],107 mV and 113 mV and 106 mV
same,APD30,[2]; [6],131 ms and 143 ms and 136 ms and 134 ms
same,APD50,[2]; [6],184 ms and 197 ms and 203 ms and 210 ms
same,APD90,[2]; [6],254 ms and 268 ms and 299 ms and 327 ms
same,Beat Escape,[2]; [6],0
same,EADs,[2]; [6],0
same,ERP,[2]; [6],0.49 and 0.48 and 0.54 and 0.56
same,Max Dispersion,[2]; [6],2.38 and 2.93 and 4.08 and 4.05
same,Refractoriness Escape,[2]; [6],0
same,Triangulation,[2]; [6],123 and 126 and 163 and 193
same,effect on amplitude of AP,"[2]; up to the highest testing concentration, 1 μM",negligible effects
